Source: US20220401459A1, “NEW APPLICATION OF CHEMOKINE RECEPTOR CCR6 INHIBITOR IN PREVENTING RECURRENCE OF PSORIASIS” (RUIJIN HOSPITAL, SHANGHAI JIAOTONG UNIVERSITY SCHOOL OF …, priority 2019, published 2022)
Entries after “also recorded” stand apart in the source; their conditions may differ.

Assays:
[1] = system: imiquimod (IMQ)-induced mouse psoriasis model; test: Imiquimod (IMQ)-induced mouse psoriasis model: GC treatment, withdrawal, re-induced recurrence; format: in vivo; conditions: for proportion of γδT17 (IL-17-secreting) cells in lymph nodes: after drug administration was stopped (2 weeks); for recurrence of psoriasis: psoriasis re-induced with IMQ after withdrawal
Text: (§1) In this example, an animal model to simulate clinical GC treatment for psoriasis was established (FIG. 2a). An imiquimod (IMQ)-induced mouse psoriasis model was utilized to simulate the whole clinical process of topical glucocorticoid treatment in patients with psoriasis: administering of drug—stop administering—recurrence of disease.
(§2) All mice were smeared with IMQ for three weeks. Among them, from the 6th day, GC or petrolatum (Vas) was applied to the skin of the mice, and all treatments were stopped on the 21st day. Mice entered a 2-week drug withdrawal period, after which IMQ was applied again for 7 consecutive days to induce psoriasis recurrence.
In order to simulate the clinical withdrawal period, all mice in the experimental group and the control group were rested for 2 weeks without treatment.
In this example, IMQ was applied to the mice in the experimental group and the control group again to simulate the recurrence of psoriasis after clinical withdrawal.

[2] = system: imiquimod (IMQ)-induced mouse psoriasis model; test: as above; format: in vivo; conditions: imiquimod replaced by mannan for inducing recurrence
[3] = system: wild-type mice (WT), CCR6−/−, and CCR2−/− mice; test: GC treatment and IMQ re-challenge in WT, CCR6−/− and CCR2−/− mice; format: in vivo, mouse
Text: as §1, §2
Cytokine receptors CCR6 and CCR2 are known to mediate the migration of γδT17 cells in the occurrence of skin inflammation. In this example, the above-mentioned mechanism was studied in wild-type mice (WT), CCR6^−/−, and CCR2^−/− mice.

[4] = system: patients with psoriasis vulgaris; test: Psoriasis vulgaris patients, topical GC for 2 weeks, then stopped until relapse (flow cytometry, RNA-seq); format: in vivo, human
Description: In this example, patients with psoriasis vulgaris were recruited and glucocorticoids (GC) were topically (externally) administered for 2 weeks of treatment. Thereafter, the administration were stopped until the disease relapsed, and further research on the mechanism of psoriasis recurrence was carried out.
Transcriptome sequencing (RNA-seq) was performed on the skin lesions of these patients before GC treatment, after GC treatment, and after disease recurrence.
In this example, in psoriasis patients receiving GC treatment, the changes in the proportion of CD3+ T cells and T17 cells in the skin and peripheral blood before treatment, after treatment and during recurrence were detected.

[5] = 2 weeks after withdrawal, vs control group
[6] = TCRd−/− mice, IMQ re-challenge, GC vs Vas
[7] = CCR6−/− mice, after GC treatment
[8] = CCR6−/− mice, re-challenge with IMQ
[9] = after treatment and during recurrence
[10] = before, after treatment and during recurrence

## CCCCCCCCc1ccc(CCC(N)(CO)CO)cc1 [FTY720]
[1]; GC group, recurrence
  migration of γδT17 cells from the draining lymph nodes: prevented
[1]; mice in the GC group given FTY720
  rapid recurrence of psoriasis: did not appear rapid recurrence

## C[C@@H]1C[C@H]2[C@@H]3C[C@H](F)C4=CC(=O)C(Cl)=C[C@]4(C)[C@@]3(F)[C@@H](O)C[C@]2(C)[C@@]1(O)C(=O)CO [halometasone]
[2]
  rapid disease recurrence: no longer had rapid disease recurrence
[1]; 2 weeks after withdrawal
  proportions of γδT, Vγ4, Vγ4Vδ4 cells in draining and distant lymph nodes: remained unchanged or slightly increased
[1]; 2 weeks after withdrawal, vs Vas control group
  neutrophils infiltrated in the skin: more neutrophils were infiltrated
[1]; [5]
  proportion of γδT17 in the skin: also lower
  proportions of CD3, γδT, Vγ4Vδ4 in the skin: still lower
[1]; IMQ re-challenge, GC vs Vas
  levels of IL-17 secreted by CD3 and γδT cells in the skin: not significantly different
  proportions of CD3 and γδT cells in the skin: not significantly different
  proportions of IL-17 secreted by γδT, Vγ4, Vγ4Vδ4 cells in distant lymph nodes: significantly lower
  proportions of Vγ4T17 and Vγ4Vδ4T17 cells in the skin: slightly decreased
  γδT17 in skin draining lymph nodes: no difference
[1]; IMQ re-challenge, vs Vas control group
  infiltrated neutrophils in the skin: exceeded
[1]; IMQ re-challenge, vs Vas group
  epidermal thickening fold: also higher
[1]; TCRd−/− mice, 2 weeks after withdrawal, GC vs Vas
  neutrophils infiltrated in the skin: no difference
[1]; [6]
  ear / epidermal thickening: no difference
  infiltrated neutrophils in the skin: opposite results
[1]; TCRd−/− mice, after treatment, experimental vs control group
  neutrophil infiltration in the skin: no statistical difference
[1]; after drug administration was stopped
  proportion of γδT17 cells in lymph nodes after stimulation: still significantly increased
[1]
  proportion of γδT17 (IL-17-secreting) cells in lymph nodes: still significantly increased
  recurrence of psoriasis: relapsed rapidly
[1]; listed as GC
  proportion of γδT17 (IL-17-secreting) cells in lymph nodes: significantly increased
  recurrence of psoriasis: more severe disease recurrence
[1]; after treatment
  IL-17 secretion by Vγ4 cells and Vγ4Vδ4 cells in draining lymph nodes: secreted more IL-17
  dermal γδT cells, especially Vγ4Vδ4 cells, in the skin: significantly reduced
  proportion of CD3+ T cells in the skin: significantly reduced
  proportion of IL-17 secretion of γδT, Vγ4, Vγ4Vδ4 cells in distal lymph nodes: also higher
  proportion of Vγ4 cells in skin-draining lymph nodes: increased
  proportion of γδT17 cells in draining and distal lymph nodes: significantly increased
  proportion of γδT cells in skin-draining lymph nodes: decreased
  proportions of IL1R expression in γδT, Vγ4, Vγ4Vδ4 cells in the skin: all increased
  proportions of γδT, Vγ4, Vγ4Vδ4 T cells in distal lymph nodes: higher
[1]; after treatment, immunofluorescence and flow staining
  neutrophil infiltration in the skin: reduced
[1]; after treatment, listed as GC
  proportion of IL-17 secretion of γδT, Vγ4, Vγ4Vδ4 cells in distal lymph nodes: all increased
  proportion of γδT17 cells in draining and distal lymph nodes: increased in draining and distant lymph nodes
  proportions of CD3, γδ, Vγ4, Vγ4Vδ4 that secreted IL-17 (γδT17) in the skin: reduced; also recorded: decreased in the skin
  proportions of γδT, Vγ4, Vγ4Vδ4 T cells in distal lymph nodes: all increased
[1]; after using IMQ again for 3 days, vs control group
  ear thickening speed: faster
[1]; day 21, vs control group (Vas)
  ear thickness: significantly thinner
[1]; psoriasis re-induced with IMQ
  proportion of γδT17 cells in draining and distal lymph nodes: significant decrease
[1]; psoriasis re-induced with IMQ, GC group vs Vas
  proportion of Vγ4 and Vγ4Vδ4 T cells in the skin: higher
[1]; psoriasis re-induced with IMQ, GC group vs Vas, listed as GC
  proportions of γδT, Vγ4, Vγ4Vδ4 cells in lymph nodes: varied slightly or did not change; also recorded: mild or no change
[1]; psoriasis re-induced with IMQ, listed as GC
  proportion of γδT17 cells in draining and distal lymph nodes: indistinguishable or even lower
[1]; topical treatment of ear skin inflammation
  symptoms of skin psoriasis: significantly relieved
[3]; CCR6 KO mice, recurrence after GC treatment
  proportion of γδT17 cells in lymph nodes: did not show a decrease
[3]; CCR6 knockout mice
  redistribution of γδT17 cells in vivo: did not affect
[3]; [7]
  ear thickness vs corresponding control: no significant difference
  increased levels of IL-17 secreted by γδT, Vγ4, Vγ4Vδ4 cells in draining and distant sites: not observed
[3]; CCR6−/− mice, after treatment
  proportion of γδT cells in lymph nodes: did not show an increase
[3]; [8]
  disease recurrence: significantly suppressed
  levels of IL-17 secreted by dermal γδT, Vγ4, Vγ4Vδ4 cells vs corresponding control group: significantly lower
  proportions of γδT17, Vγ4T17, Vγ4Vδ4T17 cells in draining and distant lymph nodes (decrease): not
[3]; WT and CCR2 mice, re-challenge with IMQ
  disease recurrence: faster disease recurrence
[3]; WT and CCR2−/− mice, after GC treatment
  ear thickness vs corresponding controls: significantly lower
[3]; WT and CCR2−/− mice, re-challenge with IMQ
  levels of IL-17 secreted by CD3, γδT, Vγ4, Vγ4Vδ4 cells in the skin vs corresponding control group: no significant difference
[3]; WT mice, re-challenge with IMQ
  proportions of γδT17, Vγ4T17, Vγ4Vδ4T17 cells in draining and distant lymph nodes: decreased
[3]; WT, CCR6−/− and CCR2−/− mice (three strains), after GC treatment
  ear thickness: reduced
[3]; three strains of mice, after GC treatment
  levels of IL-17 secreted by CD3, γδT, Vγ4, Vγ4Vδ4 cells in the skin: all reduced
[4]; [9]
  expression of chemokines CCL20, CCL5, CCL2, CXCL10 in skin lesions (RNA-seq): decreased after treatment and increased during recurrence
  expression of psoriasis-related genes (IL-17, IL-23) in skin lesions: decreased after treatment, but increased during recurrence
[4]; after treatment and during recurrence, listed as GC
  expression of psoriasis-related genes (IL-17, IL-23) in skin lesions: down-regulated
[4]; [10]
  proportion of IL-17-producing T cells (T17 cells) in skin lesions: decreased after treatment and increased during recurrence
  proportion of IL-17-producing cells (T17 cells) in peripheral blood: increased after treatment and decreased during recurrence
[4]; before, after treatment and during recurrence, listed as GC
  proportion of IL-17-producing T cells (T17 cells) in skin lesions: decreased
[4]; topical treatment
  control of psoriasis: quickly and effectively control psoriasis
